Patent publication US20120270237A9, “METHODS FOR THE IDENTIFICATION OF KINASE INTERACTING MOLECULES AND FOR THE PURIFICATION OF KINASE PROTEINS” (Cellzone AG, priority 2009, published 2012)

Tests used:
Experiment in all cases: Kinobeads competition binding, L-363 cell lysate
Details in all cases: 10 μM free compound, L-363 lysate
[1] = target: ARG (Homo sapiens, UniProt P42684); design: endogenous in cells
Procedure, shortened: (§1)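 Bead-bound proteins were quantified by tandem mass spectrometry after iTRAQ labeling. Beforehand, lysate from proteasome-inhibited L-363 cells had been incubated with the free compound at 10 μM, with a solvent-only aliquot as reference.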

[2] = target: T1, MST1 (Homo sapiens, UniProt Q13043); design: endogenous in cells
T1 sequence (Q13043 1-487): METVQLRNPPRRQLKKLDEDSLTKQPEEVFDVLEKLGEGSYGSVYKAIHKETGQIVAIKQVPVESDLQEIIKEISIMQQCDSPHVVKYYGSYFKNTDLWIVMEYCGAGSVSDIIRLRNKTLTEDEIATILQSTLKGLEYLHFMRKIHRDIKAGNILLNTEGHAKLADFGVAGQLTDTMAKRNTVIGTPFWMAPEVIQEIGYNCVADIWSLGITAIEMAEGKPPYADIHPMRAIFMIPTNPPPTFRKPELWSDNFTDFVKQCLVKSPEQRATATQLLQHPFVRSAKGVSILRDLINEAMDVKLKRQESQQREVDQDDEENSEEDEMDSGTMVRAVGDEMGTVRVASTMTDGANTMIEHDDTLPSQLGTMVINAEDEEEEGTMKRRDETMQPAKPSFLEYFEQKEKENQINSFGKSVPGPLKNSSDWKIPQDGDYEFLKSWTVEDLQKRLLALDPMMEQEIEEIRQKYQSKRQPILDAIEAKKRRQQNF
Procedure, shortened: as §1

[3] = target: CaMKK2 (Homo sapiens, UniProt Q96RR4); design: capturing and identification of kinases from L-363 cell lysate; endogenous in cells; host or cells: L-363 cells (DSMZ ACC49), pre-treated with MG132
Chain of CaMKK2 (Q96RR4 whole entry): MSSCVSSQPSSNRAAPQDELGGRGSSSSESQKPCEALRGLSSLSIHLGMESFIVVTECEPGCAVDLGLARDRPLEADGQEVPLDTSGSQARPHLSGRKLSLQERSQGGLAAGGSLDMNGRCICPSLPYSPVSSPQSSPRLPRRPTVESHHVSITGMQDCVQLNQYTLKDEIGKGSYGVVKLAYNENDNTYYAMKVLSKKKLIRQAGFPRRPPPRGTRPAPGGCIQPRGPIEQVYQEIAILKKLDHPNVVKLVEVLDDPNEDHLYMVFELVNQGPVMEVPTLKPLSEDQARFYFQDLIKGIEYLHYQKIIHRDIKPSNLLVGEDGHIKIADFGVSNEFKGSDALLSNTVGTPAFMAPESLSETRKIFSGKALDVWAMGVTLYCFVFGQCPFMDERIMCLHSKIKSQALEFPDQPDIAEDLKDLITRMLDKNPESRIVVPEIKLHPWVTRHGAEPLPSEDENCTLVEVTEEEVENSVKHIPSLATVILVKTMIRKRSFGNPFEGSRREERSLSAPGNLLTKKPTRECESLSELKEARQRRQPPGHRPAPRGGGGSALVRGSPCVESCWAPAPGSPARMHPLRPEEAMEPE
Description: (§2) To one aliquot of cell lysate 10 μM of the free compound (FIG. 3, CZC31326) was added and allowed to bind to proteins in the lysate. Then the affinity matrix with the immobilized compound was added to capture proteins that were not interacting with the previously added free compound. Beads were separated from the lysate and bead bound proteins were eluted in SDS sample buffer and subsequently separated by SDS-Polyacrylamide gel electrophoresis (FIG. 8). Suitable gel bands were cut out and subjected to in-gel proteolytic digestion with trypsin. The second lysate aliquot was processed identically, however no free compound was added (DMSO solvent control). Peptides originating from samples 1 and 2 were labeled with iTRAQ reagents (iTRAQ 114 and iTRAQ 117) and the combined samples were analyzed with a nano-flow liquid chromatography system coupled online to a tandem mass spectrometer (LC-MS/MS) experiment followed by iTRAQ reporter ion quantification in the MS/MS spectra as described in Example 2.
(§3) For this experiment the human plasma cell leukaemia line L-363 was used (German Collection of Microorganisms and Cell Cultures, DSMZ number ACC49, Braunschweig, Germany). Cells were treated for three hours with 20 μM of the proteasome inhibitor MG132 (Z-Leu-Leu-Leu-al, Sigma C2211) prior to cell harvesting.

[4] = target: CK2a1 (Homo sapiens, UniProt P68400); design: capturing and identification of kinases from L-363 cell lysate; endogenous in cells; host or cells: L-363 cells (DSMZ ACC49), pre-treated with MG132
Chain of CK2a1 (P68400 whole entry): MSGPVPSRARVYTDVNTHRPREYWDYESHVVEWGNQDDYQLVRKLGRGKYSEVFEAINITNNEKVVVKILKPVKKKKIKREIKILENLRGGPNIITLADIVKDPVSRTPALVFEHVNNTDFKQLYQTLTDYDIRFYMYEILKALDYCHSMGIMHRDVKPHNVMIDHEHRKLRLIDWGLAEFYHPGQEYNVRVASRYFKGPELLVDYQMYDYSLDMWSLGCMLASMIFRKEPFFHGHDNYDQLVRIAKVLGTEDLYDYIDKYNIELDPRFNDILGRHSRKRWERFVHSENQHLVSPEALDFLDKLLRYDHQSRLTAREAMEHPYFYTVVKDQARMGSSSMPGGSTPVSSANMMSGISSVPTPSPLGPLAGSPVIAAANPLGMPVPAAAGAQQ
Description: as §2, §3

[5] = target: CDC2 (Homo sapiens, UniProt P06493); design: capturing and identification of kinases from L-363 cell lysate; endogenous in cells; host or cells: L-363 cells (DSMZ ACC49), pre-treated with MG132
Chain of CDC2 (P06493 whole entry): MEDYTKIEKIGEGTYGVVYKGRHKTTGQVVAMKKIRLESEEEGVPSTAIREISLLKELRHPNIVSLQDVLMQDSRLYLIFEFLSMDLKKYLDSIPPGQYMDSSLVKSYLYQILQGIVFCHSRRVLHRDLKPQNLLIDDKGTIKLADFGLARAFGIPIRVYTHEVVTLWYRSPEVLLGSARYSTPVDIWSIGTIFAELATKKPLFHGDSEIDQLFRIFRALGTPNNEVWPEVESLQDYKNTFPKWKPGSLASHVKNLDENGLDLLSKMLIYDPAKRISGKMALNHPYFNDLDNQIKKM
Description: as §2, §3

Chain of ARG (P42684 whole entry): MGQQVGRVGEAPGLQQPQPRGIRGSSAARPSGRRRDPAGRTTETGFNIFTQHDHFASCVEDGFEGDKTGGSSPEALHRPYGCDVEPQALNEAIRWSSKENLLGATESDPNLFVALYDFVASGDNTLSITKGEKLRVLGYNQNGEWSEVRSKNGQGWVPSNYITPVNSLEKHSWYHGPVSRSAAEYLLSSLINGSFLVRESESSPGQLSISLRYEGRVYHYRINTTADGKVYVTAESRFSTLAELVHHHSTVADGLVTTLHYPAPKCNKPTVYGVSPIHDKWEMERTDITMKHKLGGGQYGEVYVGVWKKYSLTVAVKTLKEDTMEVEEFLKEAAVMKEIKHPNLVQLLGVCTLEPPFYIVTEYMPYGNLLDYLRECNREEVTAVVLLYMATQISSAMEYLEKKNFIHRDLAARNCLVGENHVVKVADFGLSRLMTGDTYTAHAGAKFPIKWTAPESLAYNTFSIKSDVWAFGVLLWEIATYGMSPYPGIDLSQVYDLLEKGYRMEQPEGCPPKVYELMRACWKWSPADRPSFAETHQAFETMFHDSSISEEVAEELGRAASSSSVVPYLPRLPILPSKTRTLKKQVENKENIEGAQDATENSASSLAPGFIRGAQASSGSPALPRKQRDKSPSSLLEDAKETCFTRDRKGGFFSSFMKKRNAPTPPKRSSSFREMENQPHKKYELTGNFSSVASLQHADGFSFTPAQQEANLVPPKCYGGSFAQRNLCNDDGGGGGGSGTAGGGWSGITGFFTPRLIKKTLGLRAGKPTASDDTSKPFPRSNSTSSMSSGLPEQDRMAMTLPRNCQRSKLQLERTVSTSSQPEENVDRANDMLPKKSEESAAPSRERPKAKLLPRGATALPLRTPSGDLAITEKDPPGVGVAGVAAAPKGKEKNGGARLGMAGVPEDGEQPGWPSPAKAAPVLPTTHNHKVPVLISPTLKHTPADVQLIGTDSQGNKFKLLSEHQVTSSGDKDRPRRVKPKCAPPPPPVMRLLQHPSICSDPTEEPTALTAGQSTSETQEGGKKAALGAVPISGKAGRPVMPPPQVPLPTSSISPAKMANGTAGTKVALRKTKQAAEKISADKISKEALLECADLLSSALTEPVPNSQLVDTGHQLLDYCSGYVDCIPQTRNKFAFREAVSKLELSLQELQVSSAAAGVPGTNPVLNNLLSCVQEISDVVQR

- inhibition at 10 µM [1]: 95.8%
- Competition % [2]: 98.3%
- inhibition at 10 µM [3]: 97%
- inhibition at 10 µM [4]: 97.9%
- inhibition at 10 µM [5]: 95.1%
Structure (SMILES): CS(=O)(=O)Nc1ccccc1Nc1nc(Nc2cccc(OCCN)c2)ncc1Cl [CZC31326, N-(2-(2-(3-(2-aminoethoxy)phenylamino)-5-chloropyrimidin-4-ylamino)phenyl)methanesulfonamide]
